Measured values from PMC9823735, “Inhibition of Leishmania infantum Trypanothione Reductase by New Aminopropanone Derivatives Interacting with the NADPH Binding Site” (Molecules, 2023).

Assays:
[1] = molecular target: T1, LiTR (Leishmania infantum, UniProt A4HSF7); design: method as in PMID 30475811; conditions: residual LiTR activity with 100 μM inhibitor; reference compound; cited from earlier work
T1 construct: LiTR has been expressed and purified as reported previously; made in house

[2] = system: hGR; design: method as in PMID 30475811; conditions: cited from earlier work
[3] = system: L. infantum promastigotes; design: method as in PMID 30475811; conditions: read-out: IC50 anti-proliferative effect; cited from earlier work
[4] = molecular target: T1, LiTR; test: LiTR enzymatic inhibition assay (NADPH oxidation, absorbance at 340 nm); format: biochemical; conditions: for activity at 100 µM: read-out: LiTR Activity (% at 100 µM)
Procedure: (§1) Furthermore, the best acting compound, namely 2b, reduced the activity of the enzyme by 47%.
Enzymatic inhibition assays were performed at 25 °C using a JASCO V650 spectrophotometer equipped with a JASCO EHC-716 Peltier unit. LiTR (50 nM) was mixed with 100 μM of the compounds and 150 μM trypanothione in 50 mM HEPES pH 7.4, 40 mM NaCl, and incubated at 25 °C for 3 min. The reaction was started upon addition of 100 μM NADPH. Oxidation of the NADPH was followed as a decrease in absorbance at 340 nm. The best inhibitor candidate (2b) was then tested under the same conditions at concentrations ranging from 0.1 to 200 μM to determine the IC50. LiTR activity was determined as V0(compound)/V0(control)*100, where V0 is the initial velocity. The IC50 was determined using a dose response logistic equation defined by the Kaleidagraph software as ymin + (ymax-ymin)/(1 + (x/IC50)^slope).

[5] = molecular target: T2, human homolog glutathione reductase (Homo sapiens, UniProt P00390); test: Glutathione reductase inhibition assay (NADPH oxidation, absorbance at 340 nm); format: biochemical
T2 construct: purchased Sigma Aldrich
T2 sequence (P00390 44-522): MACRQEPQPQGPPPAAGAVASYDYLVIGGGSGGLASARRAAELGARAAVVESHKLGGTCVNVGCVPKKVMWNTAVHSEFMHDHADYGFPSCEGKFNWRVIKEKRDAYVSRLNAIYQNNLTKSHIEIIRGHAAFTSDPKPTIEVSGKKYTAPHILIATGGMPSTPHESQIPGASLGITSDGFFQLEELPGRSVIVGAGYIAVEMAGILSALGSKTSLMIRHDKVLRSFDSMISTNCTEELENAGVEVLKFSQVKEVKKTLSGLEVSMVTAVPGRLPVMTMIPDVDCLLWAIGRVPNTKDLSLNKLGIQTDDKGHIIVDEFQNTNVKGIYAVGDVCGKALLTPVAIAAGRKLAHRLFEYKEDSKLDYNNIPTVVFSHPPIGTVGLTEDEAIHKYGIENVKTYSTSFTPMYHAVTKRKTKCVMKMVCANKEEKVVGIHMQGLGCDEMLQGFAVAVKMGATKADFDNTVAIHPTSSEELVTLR
Procedure: as §1
Figure S9: Conformation of compound 3c with the lowest energy in the most populated cluster.
Figure S10. Inhibition kinetics of the glutathione reductase in the presence of compound 2b. Inhibition assays were performed at 25 °C using a JASCO V650 spectrophotometer equipped with a JASCO EHC-716 Peltier unit. Glutathione Reductase (GR) 50 nM, (purchased from Sigma Aldrich) was mixed with varying concentrations of compound 2b (0.1 to 200 μM) and 150 μM oxidized glutathione in 50 mM HEPES pH 7.4, 40 mM NaCl; and incubated at 25°C for 3 minutes. The reaction was started upon addition of 100 μM NADPH. Oxidation of NADPH was followed as a decrease in absorbance at 340 nm. GR activity was determined as V0(compound)/V0(control)*100 where V0 is the initial velocity. The IC50 was determined using a dose response logistic equation defined by the Kaleidagraph software as ymin+(ymax-ymin)/(1+(x/IC50)^slope). […]

T1 sequence (A4HSF7 1-491): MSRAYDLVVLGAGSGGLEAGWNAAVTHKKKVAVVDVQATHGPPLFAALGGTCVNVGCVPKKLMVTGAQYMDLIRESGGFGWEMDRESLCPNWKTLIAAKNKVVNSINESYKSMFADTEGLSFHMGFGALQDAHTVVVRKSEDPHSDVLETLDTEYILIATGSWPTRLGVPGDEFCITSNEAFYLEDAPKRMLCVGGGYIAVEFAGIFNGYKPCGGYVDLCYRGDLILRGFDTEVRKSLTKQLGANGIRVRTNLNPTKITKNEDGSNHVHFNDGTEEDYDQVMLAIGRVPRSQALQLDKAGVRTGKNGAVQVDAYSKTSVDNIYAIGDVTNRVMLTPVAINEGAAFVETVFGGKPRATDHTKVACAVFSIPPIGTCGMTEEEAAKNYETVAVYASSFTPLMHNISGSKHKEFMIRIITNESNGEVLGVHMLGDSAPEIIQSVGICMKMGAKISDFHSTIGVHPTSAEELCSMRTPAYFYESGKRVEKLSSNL

SMILES	activity at 100 µM [4]	further results
CCN(CC)CCOC(=O)c1ccc(NCCC(=O)c2ccc([N+](=O)[O-])cc2)cc1 [Compound 1, 2-(diethylamino)ethyl 4-((3-(4-nitrophenyl)-3-oxopropyl)amino)benzoate]	–	LiTR Activity (% at 100 µM) [1]: <10.0 [10] %; IC50 [2]: > 85 µM; IC50 [3]: 12.4 µM
CCN(CC)CCOC(=O)c1ccc(NCCC(=O)c2ccc(-c3ccccc3)cc2)cc1 [Compound 2a, 2-(Diethylamino)ethyl 4-((3-([1,1’-biphenyl]-4-yl)-3-oxopropyl)amino)benzoate]	55.4 ± 13.3%	–
CCN(CC)CCOC(=O)c1ccc(NCCC(=O)c2ccc(-c3ccc(Cl)cc3)cc2)cc1 [Compound 2b, 2-(Diethylamino)ethyl 4-((3-(4’-chloro-[1,1’-biphenyl]-4-yl)-3-oxopropyl)amino)benzoate]	47 ± 9.7%	residual LiTR activity ([4]; 100 μM compound): 47%; IC50 ([4]; 25 °C, 150 μM trypanothione, 100 μM NADPH, average of three experiments): 65 µM; IC50 ([5]; 25 °C, 50 nM GR, 150 μM oxidized glutathione, 100 μM NADPH): > 150 µM; IC50 on glutathione reductase relative to IC50 on TR (selectivity) ([5]; GR versus LiTR): more than two-fold higher
CCN(CC)CCOC(=O)c1ccc(NCCC(=O)c2ccc(Br)cc2)cc1 [Compound 2c, 2-(Diethylamino)ethyl 4-((3-(4-bromophenyl)-3-oxopropyl)amino)benzoate]	73.8 ± 4.6%	–
CCN(CC)CCOC(=O)c1ccc(NCCC(=O)c2ccccc2)cc1 [Compound 2d, 2-(Diethylamino)ethyl 4-((3-oxo-3-phenylpropyl)amino)benzoate]	73.8 ± 4.4%	–
CCN(CC)CCOC(=O)c1ccc(NCCC(=O)c2ccc(F)cc2)cc1 [Compound 2e, 2-(Diethylamino)ethyl 4-((3-(4-fluorophenyl)-3-oxopropyl)amino)benzoate]	60.5 ± 4.1%	–
CCN(CC)CCOC(=O)c1ccc(N(CCC(=O)c2ccc(F)cc2)CCC(=O)c2ccc(F)cc2)cc1 [Compound 2f, 2-(Diethylamino)ethyl 4-(bis(3-(4-fluorophenyl)-3-oxopropyl)amino)benzoate]	75 ± 2.4%	–
CCN(CC)CCNC(=O)c1ccc(NCCC(=O)c2ccc(-c3ccccc3)cc2)cc1 [Compound 3a, 4-((3-([1,1’-Biphenyl]-4-yl)-3-oxopropyl)amino)-N-(2-(diethylamino)ethyl)benzamide]	68.4 ± 6.7%	–
CCN(CC)CCNC(=O)c1ccc(NCCC(=O)c2ccc(-c3ccc(Cl)cc3)cc2)cc1 [Compound 3b, 4-((3-(4’-Chloro-[1,1’-biphenyl]-4-yl)-3-oxopropyl)amino)-N-(2-(diethylamino)ethyl)benzamide]	59.4 ± 2.4%	–
CCN(CC)CCNC(=O)c1ccc(NCCC(=O)c2ccc(Br)cc2)cc1 [Compound 3c, 4-((3-(4-Bromophenyl)-3-oxopropyl)amino)-N-(2-(diethylamino)ethyl)benzamide]	87.3 ± 1.9%	–
